Results taken from patent US12011499B2, “Peptides and compositions for use in cosmetics” (LIPOTRUE, S.L., priority 2020, dated 2024).

What was measured:
[1] = test system: hyaluronic acid; assay: Modulation of hyaluronic acid synthesis in HDFa cell culture (competitive ELISA); assay type: cell-based, human; conditions: 48 hours
Procedure: Modulation of Hyaluronic acid production by Ac-SEQ ID NO: 3-NH2 peptide (synthesized in accordance with examples 1-3 and 5) on HDFa was evaluated in vitro.
Briefly, HDFa were seeded in 96-well plates at a density of 1×10^4 cells/well and, then, incubated with non-cytotoxic concentrations of Ac-SEQ ID NO: 3-NH2 peptide, this is 0.01 mg/ml, 0.05 mg/ml, 0.1 mg/ml and 0.5 mg/ml, for 48 hours. 0.1 μM retinoic acid was included as positive control and untreated cells were included as basal control. At the end of the experiment, cell culture media were extracted from all wells and stored at −80° C. Ex-novo synthesis of hyaluronic acid was measured by means of competitive ELISA following manufacturer's instructions.

[2] = test system: Metalloproteinase-3 (MMP3); assay: Gene expression modulation in HDFa (RTqPCR), MMP3; assay type: cell-based, human; conditions: 0.1 mg/ml, 6 hours
Procedure: (§1) Changes in gene expression levels are represented as a positive or negative fold-change with regard to the basal control (untreated cells). Bars from top to bottom in the y axis refer to: Metalloproteinase-1 (MMP1), Metalloproteinase-3 (MMP3), Fibronectin 1 (FN1), Fibrillin-1 (FBN1) and Versican (VCAN) genes, and x axis refers to fold change vs basal control.
(§2) Modulation of gene expression by Ac-SEQ ID NO: 3-NH2 peptide (synthesized in accordance with examples 1-3 and 5) on HDFa was evaluated in vitro.
(§3) Briefly, HDFa cells were seeded in duplicate in 6-well plates at a density of 4×10^5 cells/well and they were maintained at standard culture conditions (37° C., 95% humidity, 5% CO2) for 24 hours. Then, cells were treated with Ac-SEQ ID NO: 3-NH2 peptide at the non-cytotoxic concentration of 0.05 and 0.1 mg/ml for additional 6 hours. Untreated cells were used as basal control. […] RNA was then quantified by nanodrop, adjusted in concentration and processed for retrotranscription to cDNA using a commercially available kit (High-Capacity cDNA Reverse Transcription kit—Thermofisher Scientific, USA). Resulting cDNA was used to perform a RTqPCR (Real Time Quantitative Polymerase Chain Reaction) using taqman technology and a panel of probes designed to target specific genes related to extracellular matrix components and structure.

[3] = test system: versican; assay: Modulation of versican synthesis in HDFa cell culture (sandwich ELISA); assay type: cell-based, human; conditions: 24 hours
Procedure: The effect of Ac-SEQ ID NO: 3-NH2 peptide (synthesized in accordance with examples 1-3 and 5) on versican production was evaluated in vitro using human dermal fibroblasts (hereinafter, HDFa).
Briefly, HDFa cells were seeded in 96-well plates at 1×10^4 cells/well in fibroblasts growth media and maintained for 24 hours at standard culture conditions (37° C., 95% humidity, 5% CO2). After the aforementioned incubation, medium was removed and new medium containing the non-cytotoxic concentrations of Ac-SEQ ID NO: 3-NH2 peptide of: 0.01 mg/ml, 0.05 mg/ml and 0.1 mg/ml was added and incubated for 24 hours. 0.1 μM retinoic acid was included as positive control for versican stimulation and untreated cells were included as basal control. Cell culture media and cell lysate were collected from all wells at the end of the experiment and stored at −80° C. Ex-novo synthesis of versican was measured by means of sandwich ELISA following manufacturer's instructions.

[4] = test system: facial skin firmness; assay: Clinical evaluation of facial skin firmness on female volunteers (Dynaskin); assay type: in vivo, human; conditions: 0.015 mg/ml in cosmetic formulation, two times per day, after 56 days, whole treated group
Procedure: The effect of Ac-SEQ ID NO: 3-NH2 peptide (synthesized in accordance with examples 1-3 and 5) on facial skin firmness was evaluated on 22 Caucasian female volunteers.
Briefly, volunteers applied a cosmetic formulation with 3% (m/v) from a stock at 0.05% (m/v) of Ac-SEQ ID NO: 3-NH2 (effective final concentration of Ac-SEQ ID NO: 3-NH2, 0.015 mg/ml) or without (placebo). The application regime was of two times per day during 56 days, on early morning and before bedtime. Cosmetic formulations were applied on either half of clean face in order to compare the effect of placebo and the active on the same volunteer.
On days 0, 7, 14 and 56, a Dynaskin device was used on each volunteer in order to measure the firmness quality of the skin according to three parameters: volume (mm^3), area (mm^2) and depth (mm). Dynaskin uses an air beam projection onto the cheek area causing a deformation of the skin. This deformation magnitude is measured by means of a specific software collecting data of the above three parameters for each volunteer and on each hemiface.

[5] = test system: Fibronectin 1 (FN1); assay: Gene expression modulation in HDFa (RTqPCR), FN1; assay type: cell-based, human; conditions: 0.1 mg/ml, 6 hours
Procedure: as §1, §2, §3

[6] = test system: fibrillin-1; assay: Modulation of fibrillin-1 synthesis in HDFa cell culture (sandwich ELISA); assay type: cell-based, human; conditions: 48 hours
Procedure: Modulation of fibrilin-1 synthesis by Ac-SEQ ID NO: 3-NH2 peptide (synthesized in accordance with examples 1-3 and 5) was evaluated in vitro using HDFa.
HDFa were seeded in 96-well plates at a density of 1×10^4 cells/well and they were put in contact with three non-cytotoxic concentrations of Ac-SEQ ID NO: 3-N H2 peptide: 0.01 mg/ml, 0.05 mg/ml and 0.1 mg/ml for 48 hours. Untreated cells were included as basal control. At the end of the monitored experiment, cell culture media were extracted from all wells and stored at −80° C. Modulation on fibrillin-1 levels was analyzed by means of sandwhich ELISA following manufacturer's instructions.

[7] = test system: HDFa; assay: Cytotoxicity of tested concentrations on HDFa; assay type: cell-based, human; conditions: 0.01, 0.05, 0.1 and 0.5 mg/ml
[8] = test system: Fibrillin-1 (FBN1); assay: Gene expression modulation in HDFa (RTqPCR), FBN1; assay type: cell-based, human; conditions: 0.05 mg/ml, 6 hours
Procedure: as §1, §2, §3

[9] = test system: fibrillin-1; assay: Modulation of fibrillin-1 synthesis on human skin explants (immunostaining); conditions: 0.005 mg/ml in cosmetic formulation, topical on days 0, 2, 4 and 7, explants collected day 9
Procedure: The effect of Ac-SEQ ID NO: 3-NH2 peptide (synthesized in accordance with examples 1-3 and 5) on fibrillin-1 production was evaluated on human skin explants from a donor.
Briefly, skin explants were treated with a cosmetic formulation containing 1% (m/v) from a stock at 0.05% (m/v) of Ac-SEQ ID NO: 3-N H2 (effective final concentration of Ac-SEQ ID NO: 3-N H2, 0.005 mg/ml). On days 0, 2, 4 and 7, the tested product was topically applied on the basis of 2 μl per cm^2 of skin explant and spread using a small spatula.
On day 9, 3 explants from each condition were collected and frozen at −80° C. The frozen samples were cut into 7-μm-thick sections using a Leica CM 3050 cryostat. Sections were then mounted on Superfrost® plus silanized glass slides. The microscopical observations were performed using a Leica DMLB or Olympus BX43 microscope. Pictures were digitized with a numeric DP72 Olympus camera with CellD storing software.
The nuclei were counterstained using propidium iodide. The immunostaining was performed using an automated slide-processing system (Dako, AutostainerPlus). The staining was assessed by microscopical observation and image analysis.

[10] = test system: versican; assay: Modulation of versican synthesis on human skin explants (immunostaining); conditions: 0.005 mg/ml in cosmetic formulation, topical on days 0, 2, 4 and 7, explants collected day 9
Procedure: The effect of Ac-SEQ ID NO: 3-NH2 peptide (synthesized in accordance with examples 1-3 and 5) on versican production was evaluated on human skin explants from a donor.
Briefly, skin explants were obtained from a volunteer donor undergoing a plastic surgery procedure. Skin excess was donated for the present study. Skin explants were treated with a cosmetic formulation containing 1% (m/v) from a stock at 0.05% (m/v) of Ac-SEQ ID NO: 3-NH2 (effective final concentration of Ac-SEQ ID NO: 3-NH2, 0.005 mg/ml). On days 0, 2, 4 and 7, the tested product was topically applied on the basis of 2 μl per cm^2 of skin explant and spread using a small spatula.
On day 9, 3 explants from each condition were collected and fixed in a buffered formalin solution. After fixation for 24 hours in buffered formalin, samples were dehydrated and impregnated and embedded in paraffin. 5-μm-thick sections were made using a Leica RM 2125 Minot-type microtome, and the sections were mounted on Superfrost® histological glass slides. The microscopical observations were performed using a Leica DMLB or Olympus BX43 microscope. Pictures were digitized with a numeric DP72 Olympus camera with CellD storing software.
The immunostaining was performed using an automated slide-processing system (Dako, AutostainerPlus). The staining was assessed by microscopical observation and image analysis.

[11] = test system: Versican (VCAN); assay: Gene expression modulation in HDFa (RTqPCR), VCAN; assay type: cell-based, human; conditions: 0.05 mg/ml, 6 hours
Procedure: as §1, §2, §3

[12] = test system: tropoelastin; assay: Modulation of tropoelastin synthesis in HDFa cell culture (sandwich ELISA); assay type: cell-based, human; conditions: 24 hours
Procedure: The potential effect of Ac-SEQ ID NO: 3-NH2 peptide (synthesized in accordance with examples 1-3 and 5) on tropoelastin synthesis was evaluated in vitro using HDFa.
HDFa were put in culture at a density of 1×10^4 cells/well in 96-well plates and incubated for 24 hours with non-cytotoxic increasing concentrations of Ac-SEQ ID NO: 3-NH2 peptide (0.01 mg/ml, 0.05 mg/ml, 0.1 mg/ml and 0.5 mg/ml). Untreated cells were included as basal control. At the end of the monitored experimental time cell culture media and cell lysates were extracted from all wells and stored at −80° C. Ex-novo synthesis of tropoelastin was measured by means of sandwich ELISA following manufacturer's instructions.

[13] = test system: Metalloproteinase-1 (MMP1); assay: Gene expression modulation in HDFa (RTqPCR), MMP1; assay type: cell-based, human; conditions: 0.1 mg/ml, 6 hours
Procedure: as §1, §2, §3

## Ac-ALHKVK-NH2 [Ac-SEQ ID NO: 3-NH2, Ac-Ala-Leu-His-Lys-Val-Lys-NH2]
[1]; 0.01 mg/ml
  increase in hyaluronic acid production compared to basal control: 3%
[1]; 0.05 mg/ml
  increase in hyaluronic acid production compared to basal control: 8%
[1]; 0.1 mg/ml
  increase in hyaluronic acid production compared to basal control: 10%
[1]; 0.5 mg/ml
  increase in hyaluronic acid production compared to basal control: 18%
[2]
  MMP3 gene expression, fold change vs basal control: −1.20
[3]; 0.01 mg/ml
  increase in versican synthesis compared to basal control: 24%
[3]; 0.05 mg/ml
  increase in versican synthesis compared to basal control: 35%
[3]; 0.10 mg/ml
  increase in versican synthesis compared to basal control: 62%
[4]
  decrease in area of cheek deformation versus initial time: 7%
  decrease in depth of cheek deformation versus initial time: 14.5%
  decrease in volume of cheek deformation versus initial time: 20%
[5]
  Fibronectin 1 gene expression, fold change vs basal control: 1.41
[6]; 0.01 mg/ml
  increase in fibrillin-1 synthesis compared to basal control: 18%
[6]; 0.05 mg/ml
  increase in fibrillin-1 synthesis compared to basal control: 30%
[6]; 0.10 mg/ml
  increase in fibrillin-1 synthesis compared to basal control: 41%
[7]
  cytotoxicity on HDFa: non-cytotoxic
[8]
  Fibrillin 1 gene expression, fold change vs basal control: 1.55
[9]
  increase in skin surface occupied by fibrillin-1 protein compared to basal control: 24%
[10]
  increase in skin surface occupied by versican protein compared to basal control: 29%
[11]
  Versican gene expression, fold change vs basal control: 1.22
[12]; 0.01 mg/ml
  increase in tropoelastin synthesis compared to basal control: 3%
[12]; 0.05 mg/ml
  increase in tropoelastin synthesis compared to basal control: 11%
[12]; 0.10 mg/ml
  increase in tropoelastin synthesis compared to basal control: 20%
[12]; 0.50 mg/ml
  increase in tropoelastin synthesis compared to basal control: 31%
[13]
  MMP1 gene expression, fold change vs basal control: −1.33
